The values that follow come from patent publication US20240238424A1, “HETEROBIFUNCTIONAL COMPOUNDS AND METHODS OF TREATING DISEASE” (Halda Therapeutics OpCo, Inc., priority 2021, published 2024).

Test [1] deals with HeLa KRas G12C cells. The test can be described thus: Cellular growth inhibition assay (CTG), HeLa KRas G12C cells. The class given is cell-based. The note with it: Homo sapiens, CellTiter-Glo 2.0, day-5. As for the experimental part:
Cells were seeded in Poly-D-lysine-treated 384-well white plates, with 25 μL cell suspension at 250 cells/well for continuous treatments, and 1000 cells/well for washout treatments. Plates were spun at 300×g for 3 minutes, and cells were cultured at 37° C. with 5% CO2 in a humidified tissue culture incubator.
After 24 hours, the test compounds were diluted with cell culture medium in 96 deep well plates. DMSO was used as a negative control. A 25 μL aliquot of compound-containing medium was added in each well, at a final top concentration of 10 μM or 30 μM test compound, with 3-fold dilutions. For washout assays, after 4 hours, cell medium with compound was removed, and the cells were washed with 75p L fresh medium. Plates were then spun at 300×g for 3 minutes and replaced with 50 μL fresh medium in each well. Plates were then spun at 300×g for 3 minutes again and cultured at 37° C. with 5% CO2.
At day-0 and day-5 of compound treatments, cell viability was quantified with CellTiter-Glo 2.0 (Promega). After equilibrating cell plates at room temperature for 30 minutes, 25 μL CellTiter-Glo 2.0 reagent was dispensed into each well (on top of 50 μL of cell culture). Plates were mixed on a shaker for 2 minutes at 500 rpm, followed by a 10-minute incubation at room temperature. Luminescence readings were measured with an EnVision Plate Reader. Data was normalized to DMSO treated day-0 cell wells. A four-parameter non-linear regression curve fit was applied to dose-response data in Prism to determine the half maximal growth inhibitory concentration (GI50) of each compound.
(Cellular ATP, detected with luciferase, serves as a proxy for viable cell number.)

Test [2] deals with T1, GSPT1 (Homo sapiens, UniProt P15170+Q96SW2).
T1 construct: host or cells: HEK293 LgBiT cell line
In words: GSPT1 HiBit degradation assay. The class given is cell-based. The note with it: HEK293 LgBiT cells expressing GSPT1_HiBiT, luminescence after 6 hours. The source says:
Promega developed a HEK293 cell line that constitutively expresses LgBiT protein and GSPT1_HiBiT fusion protein. When both proteins are present, the HiBiT portion of the fusion protein combines with LgBiT protein to form a functional luciferase enzyme. Endurazine, a cell permeable small molecule, is converted by cellular esterases into furimazine, which the luciferase enzyme uses as a substrate to generate luminescence. When GSPT1 is degraded, the HiBit is also degraded. This prevents formation of fully functional luciferase, leading to a loss in luminescence. GSPT1 degradation therefore correlates with a decrease in luminescence and can be measured continuously over time. The concentration of compound at which 50% GSPT1 degradation occurs (DC50) was calculated using this system.
• HEK293 LgBiT Cell line (Promega Custom) • Endurazine Substrate (Promega Cat. #N2570) • DMEM (Gibco Cat. #11995) • Penicillin/Streptomycin (Gibco Cat. #15140-122) • Heat Inactivated Fetal Bovine Serum (Gibco Cat. #A38400-01) • Hygromycin B (Gibco Cat. #10-687-010) • 384 Well TC Treated White Microplate (Perkin Elmer Cat. #6007680)
HEK293 LgBiT cells were cultured in DMEM Media supplemented with 10% FBS, 5% Pen/Strep, 200 μg/ml hygromycin and stored in an incubator set at 37° C. and 5% CO2. 18-24 hours prior to compound treatment, HEK293 LgBiT cells were seeded at 1000 cells/well in a 384-well microplate in 25 μl complete media. The plate was spun at 300 g for 30 seconds and stored in the incubator overnight. The next day, compounds were titrated in DMSO and added to media supplemented with endurazine substrate. A 25 ul aliquot of 2× compound/endurazine in media were then added to the 384-well microplate with seeded cells. (Endurazine was used at a final concentration of 0.5×). The plate was spun at 300 g for 30 seconds and stored in the incubator. After 6 hours the plate was read on a Perkin Elmer MultiMode Plate Reader Envision 2105 to measure luminescence signal.
(In general: With HiBiT, luminescence reflects the tagged protein that the partner subunit can reach.)

T1 sequence (P15170 whole entry): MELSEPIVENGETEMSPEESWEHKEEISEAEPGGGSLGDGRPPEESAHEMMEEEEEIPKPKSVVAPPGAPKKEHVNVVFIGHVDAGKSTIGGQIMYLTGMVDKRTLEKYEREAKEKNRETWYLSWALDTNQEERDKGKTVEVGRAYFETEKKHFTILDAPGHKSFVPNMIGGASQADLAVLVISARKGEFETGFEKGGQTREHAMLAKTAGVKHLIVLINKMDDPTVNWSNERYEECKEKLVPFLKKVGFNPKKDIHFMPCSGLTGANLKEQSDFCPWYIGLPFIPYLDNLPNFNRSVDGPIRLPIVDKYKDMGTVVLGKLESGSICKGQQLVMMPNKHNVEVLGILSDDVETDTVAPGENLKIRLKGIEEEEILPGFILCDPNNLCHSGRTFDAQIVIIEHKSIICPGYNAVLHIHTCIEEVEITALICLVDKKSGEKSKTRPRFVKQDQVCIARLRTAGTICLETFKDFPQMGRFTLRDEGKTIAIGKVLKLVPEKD
T1 sequence (Q96SW2 whole entry): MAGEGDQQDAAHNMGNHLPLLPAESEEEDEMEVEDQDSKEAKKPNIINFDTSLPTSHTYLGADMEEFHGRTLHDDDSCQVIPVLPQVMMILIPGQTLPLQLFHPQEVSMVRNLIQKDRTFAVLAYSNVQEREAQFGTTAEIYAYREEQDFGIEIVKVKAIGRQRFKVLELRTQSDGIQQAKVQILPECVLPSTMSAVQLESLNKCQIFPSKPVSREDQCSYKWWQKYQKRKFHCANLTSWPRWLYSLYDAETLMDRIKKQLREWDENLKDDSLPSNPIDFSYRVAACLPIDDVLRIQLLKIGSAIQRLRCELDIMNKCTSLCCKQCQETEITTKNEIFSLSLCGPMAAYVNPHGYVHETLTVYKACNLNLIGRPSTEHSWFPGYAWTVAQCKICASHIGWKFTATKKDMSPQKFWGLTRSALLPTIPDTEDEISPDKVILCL
T1 sequence (Q16531 whole entry partner): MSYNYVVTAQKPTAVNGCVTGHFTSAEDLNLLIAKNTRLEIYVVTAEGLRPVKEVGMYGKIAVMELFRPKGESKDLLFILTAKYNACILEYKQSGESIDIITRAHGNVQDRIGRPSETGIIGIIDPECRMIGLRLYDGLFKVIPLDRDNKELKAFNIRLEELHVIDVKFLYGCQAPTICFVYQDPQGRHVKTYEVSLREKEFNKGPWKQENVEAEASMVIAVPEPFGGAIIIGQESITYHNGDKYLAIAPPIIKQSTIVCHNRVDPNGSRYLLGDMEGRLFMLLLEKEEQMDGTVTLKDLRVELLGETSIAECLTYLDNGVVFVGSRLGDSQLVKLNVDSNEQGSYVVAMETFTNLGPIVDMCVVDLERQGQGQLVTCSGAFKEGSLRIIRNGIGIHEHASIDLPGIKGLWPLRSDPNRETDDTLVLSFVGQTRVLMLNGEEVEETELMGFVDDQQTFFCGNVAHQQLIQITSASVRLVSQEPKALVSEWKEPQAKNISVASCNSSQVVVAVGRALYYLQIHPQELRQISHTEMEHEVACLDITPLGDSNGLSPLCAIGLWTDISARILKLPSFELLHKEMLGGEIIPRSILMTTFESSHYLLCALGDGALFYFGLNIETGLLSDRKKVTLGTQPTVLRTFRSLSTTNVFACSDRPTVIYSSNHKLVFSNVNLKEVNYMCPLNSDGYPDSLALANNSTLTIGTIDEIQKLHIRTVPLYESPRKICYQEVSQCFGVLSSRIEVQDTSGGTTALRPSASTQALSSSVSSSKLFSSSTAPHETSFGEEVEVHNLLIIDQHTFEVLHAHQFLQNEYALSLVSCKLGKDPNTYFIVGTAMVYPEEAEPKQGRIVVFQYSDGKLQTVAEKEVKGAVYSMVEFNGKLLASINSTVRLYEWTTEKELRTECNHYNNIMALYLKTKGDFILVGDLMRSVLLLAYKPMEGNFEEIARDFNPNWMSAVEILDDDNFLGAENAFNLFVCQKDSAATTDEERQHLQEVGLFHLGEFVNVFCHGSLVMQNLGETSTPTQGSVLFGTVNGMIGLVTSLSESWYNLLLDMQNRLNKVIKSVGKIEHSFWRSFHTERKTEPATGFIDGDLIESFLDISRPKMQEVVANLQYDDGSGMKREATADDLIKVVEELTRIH

As to `C=C(F)C(=O)N1CCN(c2nc(OC[C@@H]3CCCN3CCCCCCCCc3cc(Cl)cc(NC(=O)NCc4ccc5c(c4)CN(C4CCC(=O)NC4=O)C5=O)c3)nc3c2CCN(c2cccc4cccc(Cl)c24)C3)C[C@@H]1CC#N` (stereo partly drawn) [Compound I-1, 1-[3-chloro-5-[8-[(2S)-2-[[7-(8-chloro-1-naphthyl)-4-[(3S)-3-(cyanomethyl)-4-(2-fluoroprop-2-enoyl)piperazin-1-yl]-6,8-dihydro-5H-pyrido[3,4-d]pyrimidin-2-yl]oxymethyl]pyrrolidin-1-yl]octyl]phenyl]-3-[[2-(2,6-dioxo-3-piperidyl)-1-oxo-isoindolin-5-yl]methyl]urea], the GI50 (in general, the concentration that inhibits growth by half) in test [1] fell in the range of 1 to 3 µM. The DC50 (commonly the concentration at which degradation of the target reaches its halfway point) in test [2] (Table 3) fell in the range of 0.25 to 5 µM.

Consider `C=C(F)C(=O)N1CCN(c2nc(OC[C@@H]3CCCN3CCOCCOCCOCCOCCOCCOCCc3cc(Cl)cc(NC(=O)NCc4ccc5c(c4)CN(C4CCC(=O)NC4=O)C5=O)c3)nc3c2CCN(c2cccc4cccc(Cl)c24)C3)C[C@@H]1CC#N` (stereo partly drawn) [Compound I-2, 1-(3-chloro-5-(20-((S)-2-(((7-(8-chloronaphthalen-1-yl)-4-((S)-3-(cyanomethyl)-4-(2-fluoroacryloyl)piperazin-1-yl)-5,6,7,8-tetrahydropyrido[3,4-d]pyrimidin-2-yl)oxy)methyl)pyrrolidin-1-yl)-3,6,9,12,15,18-hexaoxaicosyl)phenyl)-3-((2-(2,6-dioxopiperidin-3-yl)-1-oxoisoindolin-5-yl)methyl)urea], for which the concentration for 50% growth inhibition (GI50) in test [1] is over 10 µM. The compound also gave a DC50 in test [2] (Table 3) of 5 to 10 µM.

For the compound `CN(C/C=C/C(=O)N1CCC[C@@H](n2nc(-c3ccc(Oc4ccccc4)cc3)c3c(N)ncnc32)C1)CCOCCOCCOCCOCCOCCOCCOCCOCCOCCCCCc1cc(Cl)cc(NC(=O)NCc2ccc3c(c2)CN(C2CCC(=O)NC2=O)C3=O)c1` (some centres unmarked) [Compound I-117], in test [2] (Table 3A), the 50% degradation concentration (DC50) fell in the range of 5 to 10 µM.

For `COc1cc(N2CCN(C(=O)COCCOCCOCCOCCOCCCCCc3cc(Cl)cc(NC(=O)NCc4ccc5c(c4)CN(C4CCC(=O)NC4=O)C5=O)c3)CC2)ccc1Nc1ncc(Cl)c(Nc2ccccc2P(C)(C)=O)n1` (centres unmarked) [Compound I-119], the 50% degradation concentration (DC50) in test [2] (Table 3A) lay in the range of 0.25 to 5 µM.

With `COc1cc(N2CCN(C(=O)COCCOCCOCCCCCc3cc(Cl)cc(NC(=O)NCc4ccc5c(c4)CN(C4CCC(=O)NC4=O)C5=O)c3)CC2)ccc1Nc1ncc(Cl)c(Nc2ccccc2P(C)(C)=O)n1` (centres unmarked) [Compound I-121], in test [2] (Table 3A), the DC50 is under 0.25 µM.

In test [2] (Table 3A), `C=CC(=O)NC1CN(c2nc(Nc3cn(CCOCCOCCOCCOCCOCCOCCOCCOCCOCCCCCc4cc(Cl)cc(NC(=O)NCc5ccc6c(c5)CN(C5CCC(=O)NC5=O)C6=O)c4)nc3OC)c3ncn(C)c3n2)C[C@H]1F` (some centres unmarked) [Compound I-126] registered a DC50 of 0.25 to 5 µM.

Compound `Cc1c(NC(=O)c2ccc(C3CC3)cc2F)cc(F)cc1-c1ncnc(N)c1OCCN(C)C(=O)/C=C/CN(C)CCOCCOCCOCCOCCOCCOCCOCCOCCOCCCCCc1cc(Cl)cc(NC(=O)NCc2ccc3c(c2)CN(C2CCC(=O)NC2=O)C3=O)c1` (centres unmarked) [Compound I-129] gave a half-maximal degradation concentration (DC50) in test [2] (Table 3A) of 0.25 to 5 µM.

For `C=C(F)C(=O)N1CCN(c2nc(OC[C@@H]3CCCN3CCCOCCOCCOCCOCCOCCCCCc3cc(Cl)cc(NC(=O)NCc4ccc5c(c4)CN(C4CCC(=O)NC4=O)C5=O)c3)nc3c2CCN(c2cccc4cccc(Cl)c24)C3)C[C@@H]1CC#N` (some centres unmarked) [Compound I-133], in test [2] (Table 3A), the DC50 is 0.25 to 5 µM.

As to `CN(CCOCCOCCOCCOCCOCCOCCOCCOCCOCCCCCc1cc(Cl)cc(NC(=O)NCc2ccc3c(c2)CN(C2CCC(=O)NC2=O)C3=O)c1)C(=O)CO[C@H]1CC[C@H]2[C@@H]3CC[C@H]4CC(=O)CC[C@]4(C)[C@H]3CC[C@]12C` (some centres unmarked) [Compound I-135], the 50% degradation concentration (DC50) in test [2] (Table 3A) fell in the range of 0.25 to 5 µM.

`C=C(F)C(=O)N1CCN(c2nc(OC[C@@H]3C[C@@H](OCC(=O)N(C)CCOCCOCCOCCOCCOCCOCCOCCCCCc4cc(Cl)cc(NC(=O)NCc5ccc6c(c5)CN(C5CCC(=O)NC5=O)C6=O)c4)CN3C)nc3c2CCN(c2cccc4cccc(Cl)c24)C3)C[C@@H]1CC#N` (some centres unmarked) [Compound I-136] yielded a DC50 in test [2] (Table 3A) of 0.25 to 5 µM.

As for `C=CC(=O)Nc1cc(Nc2nccc(-c3cn(C)c4ccccc34)n2)c(OC)cc1N(C)CCN(C)CCOCCOCCOCCOCCOCCOCCOCCCCCc1cc(Cl)cc(NC(=O)NCc2ccc3c(c2)CN(C2CCC(=O)NC2=O)C3=O)c1` (centres unmarked) [Compound I-139], the DC50 in test [2] (Table 3A) was in the range of 0.25 to 5 µM.

For the compound `C=C(F)C(=O)N1CCN(c2nc(OC[C@@H]3CCCN3CCCOCCOCCOCCOCCOCCCCCc3ccc(Cl)cc3NC(=O)NCc3ccc4c(c3)CN(C3CCC(=O)NC3=O)C4=O)nc3c2CCN(c2cccc4cccc(Cl)c24)C3)C[C@@H]1CC#N` (some centres unmarked) [Compound I-140], the DC50 in test [2] (Table 3A) lay within 0.25 to 5 µM.

`COc1cc(N2CCN(C(=O)COCCOCCOCCOCCOCCOCCOCCOCCOCCCCCc3cc(Cl)cc(NC(=O)NCc4ccc5c(c4)CN(C4CCC(=O)NC4=O)C5=O)c3)CC2)ccc1Nc1ncc(Cl)c(Nc2ccccc2P(C)(C)=O)n1` (centres unmarked) [Compound I-141] gave a DC50 in test [2] (Table 3A) of 0.25 to 5 µM.

On to `Cc1c(NC(=O)c2ccc(C3CC3)cc2F)cc(F)cc1-c1ncnc(N)c1OCCN(C)C(=O)/C=C/CN(C)CCOCCOCCOCCOCCOCCOCCOCCOCCOCCOCCOCCCCCc1cc(Cl)cc(NC(=O)NCc2ccc3c(c2)CN(C2CCC(=O)NC2=O)C3=O)c1` (centres unmarked) [Compound I-143], for which, in test [2] (Table 3A), the DC50 lay in the range of 0.25 to 5 µM.

In the case of `C=CC(=O)N1CCN(c2nc(=O)n(-c3c(C)cc(OCCOCCOCCOCCOCCOCCCCCc4cc(Cl)cc(NC(=O)NCc5ccc6c(c5)CN(C5CCC(=O)NC5=O)C6=O)c4)nc3C(C)C)c3nc(-c4c(O)cccc4F)c(F)cc23)[C@@H](C)C1` (some centres unmarked) [Compound I-149], the DC50 in test [2] (Table 3A) lay within 0.25 to 5 µM.

On to `C=CC(=O)N1CCN(c2nc(=O)n(-c3c(C)cc(OCCOCCOCCOCCOCCOCCOCCOCCCCCc4cc(Cl)cc(NC(=O)NCc5ccc6c(c5)CN(C5CCC(=O)NC5=O)C6=O)c4)nc3C(C)C)c3nc(-c4c(O)cccc4F)c(F)cc23)[C@@H](C)C1` (some centres unmarked) [Compound I-153], for which the DC50 in test [2] (Table 3A) lay within 0.25 to 5 µM.

For the compound `C=CC(=O)N1CCN(c2nc(=O)n(-c3c(C)cc(OCCOCCOCCOCCOCCOCCOCCOCCOCCOCCCCCc4cc(Cl)cc(NC(=O)NCc5ccc6c(c5)CN(C5CCC(=O)NC5=O)C6=O)c4)nc3C(C)C)c3nc(-c4c(O)cccc4F)c(F)cc23)[C@@H](C)C1` (some centres unmarked) [Compound I-154], in test [2] (Table 3A), the DC50 fell in the range of 0.25 to 5 µM.

In turn, `C=C(F)C(=O)N1CCN(c2nc(OC[C@@H]3CCCN3CCCOCCOCCOCCOCCOCCOCCOCCOCCOCCCCCc3cccc(NC(=O)NCc4ccc5c(c4)CN(C4CCC(=O)NC4=O)C5=O)n3)nc3c2CCN(c2cccc4cccc(Cl)c24)C3)C[C@@H]1CC#N` (some centres unmarked) [Compound I-156] gave a 50% degradation concentration (DC50) in test [2] (Table 3A) of 0.25 to 5 µM.

Turning to `CN(C/C=C/C(=O)N1CCN(c2nc(OC[C@@H]3CCCN3C)nc3c2CCN(c2cccc4cccc(Cl)c24)C3)C[C@@H]1CC#N)CCOCCOCCOCCOCCOCCOCCOCCOCCOCCCCCc1cc(Cl)cc(NC(=O)NCc2ccc3c(c2)CN(C2CCC(=O)NC2=O)C3=O)c1` (some centres unmarked) [Compound I-162], the 50% degradation concentration (DC50) in test [2] (Table 3A) lay in the range of 0.25 to 5 µM.

Consider `CN(C/C=C/C(=O)N1CCN(c2nc(OC[C@@H]3CCCN3C)nc3c2CCN(c2cccc4cccc(Cl)c24)C3)C[C@@H]1CC#N)CCOCCOCCOCCOCCOCCOCCOCCOCCOCCCCCc1cc(Cl)cc(NC(=O)NCc2ccc3c(c2)CN(C2CCC(=O)N(C)C2=O)C3=O)c1` (some centres unmarked) [Compound I-164], for which, in test [2] (Table 3A), the 50% degradation concentration (DC50) lay within 5 to 10 µM.

In turn, `C=CC(=O)N1CCN(c2nc(=O)n(-c3c(C)cc(OCCOCCOCCOCCOCCOCCOCCOCCOCCOCCOCCOCCCCCc4cc(Cl)cc(NC(=O)NCc5ccc6c(c5)CN(C5CCC(=O)NC5=O)C6=O)c4)nc3C(C)C)c3nc(-c4c(O)cccc4F)c(F)cc23)[C@@H](C)C1` (some centres unmarked) [Compound I-165] had a 50% degradation concentration (DC50) in test [2] (Table 3A) of 0.25 to 5 µM.
